Assay results published in patent US20060275339A1, “Use of antiseptic active principles in pmma bone cements” (Biomet Deutschland, priority 2003, published 2006).

System: germs
Assay: Prevention of colonisation of the PMMA bone cement surface with germs (FIGS. 1a and 1b)
Format: cell-based
Conditions: 0.155% by weight admixed with PMMA bone cement (PALAMED plain); compared with admixing of 0.86% by weight of gentamicin

**Q.** How did the “biological efficacy in preventing colonisation of the cement surface with germs” value turn out when polyhexamethylenebiguanide was run?
**A.** same (or higher) biological efficacy
